Assays:
Format in all cases: cell-based
Sclerotinia homoeocarpa [1] = assay: Radial growth of dollar spot fungus after treatment of plugs in PBS (24 well plates), dark vs light; conditions: for inhibition at 500 µM: Clarireedia homoeocarpa
Method: In this example, control of dollar spot fungus (Sclerotinia homoeocarpa) with chlorins combined with a chelating agent was assessed. Treatments were prepared in Phosphate Buffered Saline (PBS) in 24 well plates (in duplicates for light vs. dark incubation) at desired concentrations. Then, a 5 mm diameter plug of a Sclerotinia homoeocarpa isolate (3 isolates total tested) was inoculated into the PBS and incubated at 21° C. in the dark for 2 hours. After 2 hours, one of the 24 well plates (with isolates in triplicate) is left in the dark and one 24 well plate is placed under illumination for 1 hour (all at 21° C.). Following illumination, fungal plugs are removed from PBS, blotted dry on sterile filter paper and transferred to non-amended Potato Dextrose Agar (PDA). Radial growth of the fungus is monitored daily until the growth of S. homoeocarpa reaches the edge of the Petri-dish. Illumination is provided by LED lights emitting about 1000 μmol/m^2/s photosynthetically active radiation (PAR). In this example, control of dollar spot fungus (Sclerotinia homoeocarpa) with Zinc Protoporphyrin IX (Zn-PPIX) combined with EDTA was assessed. Treatments were prepared in Phosphate Buffered Saline (PBS) in 24 well plates (in duplicates for light vs. dark incubation) at desired concentrations. Then, a 5 mm diameter plug of a Sclerotinia homoeocarpa isolate (3 isolates total tested) was inoculated into the PBS and incubated at 21° C. in the dark for 2 hours. After 2 hours, one of the 24 well plates (with isolates in triplicate) is left in the dark and one 24 well plate is placed under illumination for 1 hour (all at 21° C.). Following illumination, fungal plugs are removed from PBS, blotted dry on sterile filter paper and transferred to non-amended Potato Dextrose Agar (PDA). Radial growth of the fungus is monitored daily until the growth of S. homoeocarpa reaches the edge of the Petri-dish. Illumination is provided by LED lights emitting about 1000 μmol/m^2/s photosynthetically active radiation (PAR). In this example, control of dollar spot fungus (Sclerotinia homoeocarpa) with bacteriochlorin combined with EDTA was assessed. Treatments were prepared in Phosphate Buffered Saline (PBS) in 24 well plates (in duplicates for light vs. dark incubation) at desired concentrations. Then, a 5 mm diameter plug of a Sclerotinia homoeocarpa isolate (3 isolates total tested) was inoculated into the PBS and incubated at 21° C. in the dark for 2 hours. After 2 hours, one of the 24 well plates (with isolates in triplicate) is left in the dark and one 24 well plate is placed under illumination for 1 hour (all at 21° C.). Following illumination, fungal plugs are removed from PBS, blotted dry on sterile filter paper and transferred to non-amended Potato Dextrose Agar (PDA). Radial growth of the fungus is monitored daily until the growth of S. homoeocarpa reaches the edge of the Petri-dish. Illumination is provided by LED lights emitting about 1000 μmol/m^2/s photosynthetically active radiation (PAR). In this example, control of dollar spot fungus (Sclerotinia homoeocarpa) with Aluminum chlorin e6 combined with EDTA was assessed. Treatments were prepared in Phosphate Buffered Saline (PBS) in 24 well plates (in duplicates for light vs. dark incubation) at desired concentrations. Then, a 5 mm diameter plug of a Sclerotinia homoeocarpa isolate (3 isolates total tested) was inoculated into the PBS and incubated at 21° C. in the dark for 2 hours. After 2 hours, one of the 24 well plates (with isolates in triplicate) is left in the dark and one 24 well plate is placed under illumination for 1 hour (all at 21° C.). Following illumination, fungal plugs are removed from PBS, blotted dry on sterile filter paper and transferred to non-amended Potato Dextrose Agar (PDA). Radial growth of the fungus is monitored daily until the growth of S. homoeocarpa reaches the edge of the Petri-dish. Illumination is provided by LED lights emitting about 1000 μmol/m^2/s photosynthetically active radiation (PAR). […]

Erwinia amylovora = assay: Photodynamic inactivation of Erwinia amylovora grown in liquid medium, CFU counted on plates; conditions: Table 1
Method: E. amylovora is grown in liquid medium. Samples are incubated for 30 min with 100 μM of Mg-Chlorophyllin with or without 5 mM of Disodium-EDTA, and then illuminated with 395 nm (fluence 26.6 J cm^−2) for 30 mins. CFU of the bacteria is counted on the plates.
In the experiment, E. amylovora were grown in liquid medium. Samples were incubated for 30 min with 100 μM of Mg-Chlorophyllin with or without Chelators, and then illuminated with 395 nm (fluence 26.6 J cm^−2) for 30 mins. CFU of the bacteria was counted on the plates.

E. Coli K-12 = assay: E. Coli assay under LED lamps, colony count; conditions: light
Method: Regarding the E. Coli assay tests in the above examples, the following procedure was used: • 1. E. Coli K-12 inoculated in 5 mL TSB and placed in a shaking incubator overnight. • 2. Dilute culture in 500 mL PBS (˜10̂8 CFU/mL) and placed in shaking incubator for 30 minutes at […]. • 3.15 mL samples created using 12 mL culture and a mixture of PBS buffer and sample compounds. • 4. Placed under LED lamps for 2 hours (40 W/m^2). • 5. Samples diluted to 10^−4 and culture controls diluted to 10^−5 for plating through series dilutions. • 6. 0.1 mL plated of each sample in triplicates on TSA base (10^−3 and 10^−4 for samples. 10^−4 and 10^−5 for controls). • 7. Incubated overnight at 37° C. • 8. Colonies counted next morning and recorded.

Xanthomonas axonopodis = Xanthomonas axonopodis count after photodynamic treatment in liquid medium; conditions: Mg-Chlorophyllin alone; same protocol as Example 1
Method: Xanthomonas axonopodis are bacterial pathogens that cause citrus canker. Citrus canker is a highly contagious plant disease than can destroy an entire crop field. […] Positive results were obtained at several chlorophyllin concentrations and exposure times.
Xanthomonas were grown in liquid medium. Samples were incubated for 30 mins or 5 mins with Mg-Chlorophyllin and with Disodium-EDTA for 30 mins, and then illuminated with 395 nm (fluence 26.6 J cm−2) for 30 mins. CFU of the bacteria was counted on the plates.

Sclerotinia homoeocarpa [2] = assay: Radial growth of dollar spot fungus on amended Potato Dextrose Agar, dark vs light; conditions: rate 31 μM
[3] = Table 22A, dark, rate 500 μM, growth between 48 and 72 hours
[4] = Table 22B, light, rate 500 μM, growth between 48 and 72 hours

`O=C(O)CN(CCN(CC(=O)O)CC(=O)O)CC(=O)O` [EDTA, disodium EDTA] gave an inhibition at 500 µM (Sclerotinia homoeocarpa [1]; Table 18A, dark, rate 500 μM) of 39.8%, an inhibition at 500 µM (Sclerotinia homoeocarpa [1]; Table 18B, light, rate 500 μM) of 16.6% and an inhibition at 500 µM (Sclerotinia homoeocarpa [1]; Table 19A, light, rate 500 μM) of 36%. The inhibition at 500 µM (Sclerotinia homoeocarpa [1]; Table 20A, dark, rate 500 μM) was 32.8%, the inhibition at 500 µM (Sclerotinia homoeocarpa [1]; Table 20B, light, rate 500 μM) was 33.5% and the inhibition at 500 µM (Sclerotinia homoeocarpa [1]; Table 21A, dark, rate 500 μM) was 11.6%. It also gave an inhibition at 500 µM (Sclerotinia homoeocarpa [1]; Table 21B, light, rate 500 μM) of 15.3%, an inhibition at 500 µM (Sclerotinia homoeocarpa [1]; [3]) of -3.89% and an inhibition at 500 µM (Sclerotinia homoeocarpa [1]; [4]) of 35.2%. The inhibition at 500 µM (Sclerotinia homoeocarpa [1]; Table 31A, dark, rate 500 μM) was 13.6%, the inhibition at 500 µM (Sclerotinia homoeocarpa [1]; Table 31B, light, rate 500 μM) was 36.4% and the “Mean Radial Growth” value (Sclerotinia homoeocarpa [1]; Table 18A, dark, rate 500 μM) was 6.72 mm. For the same molecule, the “Mean Radial Growth” value (Sclerotinia homoeocarpa [1]; Table 18B, light, rate 500 μM) was 9.22 mm, the “Mean Radial Growth” value (Sclerotinia homoeocarpa [1]; Table 19A, light, rate 500 μM) was 7.11 mm and the “Mean Radial Growth” value (Sclerotinia homoeocarpa [1]; Table 20A, dark, rate 500 μM) was 7.17 mm. For the same molecule, the “Mean Radial Growth” value (Sclerotinia homoeocarpa [1]; Table 20B, light, rate 500 μM) was 7.17 mm, the “Mean Radial Growth” value (Sclerotinia homoeocarpa [1]; Table 21A, dark, rate 500 μM) was 11.06 mm and the “Mean Radial Growth” value (Sclerotinia homoeocarpa [1]; Table 21B, light, rate 500 μM) was 10.78 mm. The “Mean Radial Growth” value (Sclerotinia homoeocarpa [1]; [3]) was 14.83 mm, the “Mean Radial Growth” value (Sclerotinia homoeocarpa [1]; [4]) was 8.89 mm and the “Mean Radial Growth” value (Sclerotinia homoeocarpa [1]; Table 31A, dark, rate 500 μM) was 12.67 mm. For the same molecule, the “Mean Radial Growth” value (Sclerotinia homoeocarpa [1]; Table 31B, light, rate 500 μM) was 8.17 mm and the “Relative inactivation, CFU” value (Erwinia amylovora; EDTA 5 mM alone, in light) was 11.1.
With `C=Cc1c(C)c2cc3nc(c(CC(=O)[O-])c4[n-]c(cc5nc(cc1[n-]2)C(C)=C5CC)c(C)c4C(=O)[O-])C(CCC(=O)[O-])C3C.[Mg+2].[Na+].[Na+].[Na+]` (stereo not shown) [Mg-Chlorophyllin, Mg-chlorophyllin] the “% Inactivation” value (E. Coli K-12; Table 10, 1 μM MgChln) was 95.0%, the CFU/mL (E. Coli K-12; Table 10, 1 μM MgChln) was 2.73E+05 CFU/mL and the LogCFU/mL (E. Coli K-12; Table 10, 1 μM MgChln) was 5.44 LogCFU/mL. For the same molecule, the “% Inactivation” value (E. Coli K-12; Table 10, 10 μM MgChln) was 97.6%, the CFU/mL (E. Coli K-12; Table 10, 10 μM MgChln) was 1.30E+05 CFU/mL and the LogCFU/mL (E. Coli K-12; Table 10, 10 μM MgChln) was 5.11 LogCFU/mL. For the same molecule, the “% Inactivation” value (E. Coli K-12; Table 11, 1 μM MgChln) was 86.1%, the CFU/mL (E. Coli K-12; Table 11, 1 μM MgChln) was 9.07E+05 CFU/mL and the LogCFU/mL (E. Coli K-12; Table 11, 1 μM MgChln) was 5.96 LogCFU/mL. For the same molecule, the “% Inactivation” value (E. Coli K-12; Table 12, 1 μM MgChln) was 91.3%, the CFU/mL (E. Coli K-12; Table 12, 1 μM MgChln) was 6.13E+05 CFU/mL and the LogCFU/mL (E. Coli K-12; Table 12, 1 μM MgChln) was 5.79 LogCFU/mL. For the same molecule, the “control of Xanthomonas axonopodis” value (Xanthomonas axonopodis) was “little effect”, the “% Inhibition” value (Sclerotinia homoeocarpa [1]; Table 18A, dark, rate 10 μM) was −3.98% and the “Mean Radial Growth” value (Sclerotinia homoeocarpa [1]; Table 18A, dark, rate 10 μM) was 11.61 mm. The “% Inhibition” value (Sclerotinia homoeocarpa [1]; Table 18A, dark, rate 100 μM) was −11.94%, the “Mean Radial Growth” value (Sclerotinia homoeocarpa [1]; Table 18A, dark, rate 100 μM) was 12.50 mm and the “% Inhibition” value (Sclerotinia homoeocarpa [1]; Table 18B, light, rate 10 μM) was 31.66%. The “Mean Radial Growth” value (Sclerotinia homoeocarpa [1]; Table 18B, light, rate 10 μM) was 7.56 mm, the “% Inhibition” value (Sclerotinia homoeocarpa [1]; Table 18B, light, rate 100 μM) was 22.61% and the “Mean Radial Growth” value (Sclerotinia homoeocarpa [1]; Table 18B, light, rate 100 μM) was 8.56 mm. The “% Inhibition” value (Sclerotinia homoeocarpa [1]; Table 25A, dark, rate 5 μM) was 1.04%, the “Mean Radial Growth” value (Sclerotinia homoeocarpa [1]; Table 25A, dark, rate 5 μM) was 10.56 mm and the “% Inhibition” value (Sclerotinia homoeocarpa [1]; Table 25B, light, rate 5 μM) was 37.76%. The “Mean Radial Growth” value (Sclerotinia homoeocarpa [1]; Table 25B, light, rate 5 μM) was 6.78 mm, the “% Inhibition” value (Sclerotinia homoeocarpa [2]; Table 7A, dark) was 24.1% and the “Mean Radial Growth” value (Sclerotinia homoeocarpa [2]; Table 7A, dark) was 11.2 mm. The “% Inhibition” value (Sclerotinia homoeocarpa [2]; Table 7B, light) was 51.0%, the “Mean Radial Growth” value (Sclerotinia homoeocarpa [2]; Table 7B, light) was 6.6 mm and the “% Inhibition” value (Sclerotinia homoeocarpa [2]; Table 14A, dark) was 32.5%. The “Mean Radial Growth” value (Sclerotinia homoeocarpa [2]; Table 14A, dark) was 9.1 mm, the “% Inhibition” value (Sclerotinia homoeocarpa [2]; Table 14B, light) was 59.2% and the “Mean Radial Growth” value (Sclerotinia homoeocarpa [2]; Table 14B, light) was 5.3 mm. The “% Inhibition” value (Sclerotinia homoeocarpa [2]; Table 15A, dark) was 32.5%, the “Mean Radial Growth” value (Sclerotinia homoeocarpa [2]; Table 15A, dark) was 9.1 mm and the “% Inhibition” value (Sclerotinia homoeocarpa [2]; Table 15B, light) was 59.2%. For the same molecule, the “Mean Radial Growth” value (Sclerotinia homoeocarpa [2]; Table 15B, light) was 5.3 mm and the “Relative inactivation, CFU” value (Erwinia amylovora; Mg-Chlorophyllin 100 μM without EDTA, in light (395 nm, 30 mins)) was 1.9.

— US20200253211A1, “PHOTODYNAMIC INHIBITION OF MICROBIAL PATHOGENS IN PLANTS” (SUNCOR ENERGY INC, priority 2017, published 2020)
